The text below walks through data of patent US12472144B2, “Pharmaceutical composition comprising eliglustat” (Amneal Pharmaceuticals LLC, priority 2017, dated 2025).

The nature of series [1]: Comparative pharmacokinetic study of sublingual thin film and oral formulation in rabbits. The class given is in vivo. The following applies: rabbit, blood, male New Zealand White Rabbits. From the text:
Animals. […] No non-disintegrated film fragments were observed.

For series [2] the following is noted: presence of food; cited from earlier work.
For series [3] the following is noted: in vitro, human; cited from earlier work.
The conditions of series [4]: cited from earlier work; for oral bioavailability: significant first pass metabolism.
The conditions of series [5]: BCS class I drug substance; cited from earlier work.
The mark [6] stands for this setting: other: sublingual, sublingual route, oral thin film, 10 mg.
Where [7] appears, read: oral dosing by gavage as a solution.

Like-named read-outs stand apart in the source and are kept apart here.

In the case of `CCCCCCCC(=O)N[C@H](CN1CCCC1)[C@H](O)c1ccc2c(c1)OCCO2.O=C(O)C(O)C(O)C(=O)O` [Eliglustat tartrate, N-((1R,2R)-1-(2,3-dihydrobenzo [b] [1,4]dioxin-6-yl)-1-hydroxy-3-(pyrrolidin-1-yl)propan-2-yl) octanamide (2R,3R)-2,3-dihydroxysuccinate], in series [1] (setting [6]), the AUC(0-inf) was 232 ± 106 ng·h/mL, the exposure AUC(0-t) came out at 226 ± 107 ng·h/mL, the Cmax was found to be 79.4 ± 51.6 ng/mL and the MRT last came to 2.72 ± 0.359 h. In series [1] (setting [6]), the Tmax turned out to be 0.667 ± 0.289 h and the half-life was 2.55 ± 0.511 h. In series [1] (setting [7]), this compound showed an AUC(0-inf) of 9.6 ± 6.04 ng·h/mL, an AUC(0-t) of 6.31 ± 4.85 ng·h/mL, a Cmax of 3.31 ± 2.11 ng/mL and an MRT last of 1.53 ± 0.546 h. Moreover, in series [1] (setting [7]), the Tmax worked out at 0.583 ± 0.382 h and the half-life was 2.35 ± 0.341 h. Also, the “effect of food on extent of absorption” value in series [2] is recorded as “did not affect the extent of absorption”.
Take `CCCCCCCC(=O)N[C@H](CN1CCCC1)[C@H](O)c1ccc2c(c1)OCCO2` [Genz-99067]: the “first-pass effect indicated by metabolic stability” value in series [3] is reported as “significant first-pass effect”.
As to `CCCCCCCC(=O)N[C@H](CN1CCCC1)[C@H](O)c1ccc2c(c1)OCCO2` [eliglustat], the absolute bioavailability in series [4] (CERDELGA capsule, CHMP European Assessment report) is reported as 4.49%±4.13. Moreover, the oral bioavailability result in series [4] was “less than 5%”; in series [4] (listed as Eliglustat), less than 5%. In series [5], the solubility result is reported as “high”.

For orientation: AUC(0-inf) means the area under the concentration-time curve extrapolated to infinity. Higher therefore signals high exposure. In general, AUC(0-t) refers to exposure summed from dosing to a finite time, without extrapolation to infinity. Lower therefore signals low exposure. For orientation: Cmax means the peak of the concentration-time curve. The MRT last is the average time that molecules of a dose stay in the body. As a reminder, the Tmax is the time from dosing to the highest level. The term half-life denotes how long it takes for the measured level to halve. Higher therefore signals slow loss.
